Reference: publication PMC9367672, “In vitro differences in toddalolactone metabolism in various species and its effect on cytochrome P450 expression” (Pharmaceutical Biology, 2022)

Key:
[1] = Pharmacokinetics study in rats after intravenous administration; assay type: in vivo; details: male, Sprague-Dawley, rat, intravenous 10 mg/kg, plasma
Procedure: Six male Sprague–Dawley rats weighing 200 ± 10 g were obtained from the Laboratory Animal Center of Jinzhou Medical University. Approval of the study protocols was obtained from the Institutional Animal Ethics Committee before the commencement of the studies. Toddalolactone was administered intravenously into the tail vein at a dose of 10 mg/kg, and 0.5 mL of blood was collected through orbital venous plexus at 0, 0.25, 0.5, 0.75, 1, 2, 4, 6 and 8 h after toddalolactone administration and centrifuged at 2000 g for 5 min at 4 °C to obtain the plasma samples. The plasma (0.1 mL) was mixed with 200 μL acetonitrile, the mixture was vortexed for 30 s and then centrifuged at 20,000 g for 20 min and the supernatant was collected and analyzed by HPLC.
After intravenous administration of toddalolactone, blood samples were collected and the concentration of toddalolactone in plasma was determined. The mean plasma concentrations of toddalolactone versus time profiles are depicted in Figure 13. The pharmacokinetic (PK) parameters such as AUC0–t, t1/2, Tmax and Cmax were calculated by a noncompartmental method using the DAS 3.1 software package (Jiangxi University of Traditional Chinese Medicine, Nanchang, China).

RLMs = test: Prediction of in vivo hepatic clearance in rats from RLM kinetics; assay type: in vitro ADME, rat
Procedure: The in vivo hepatic clearances in oxidative metabolism and glucuronidation of toddalolactone were calculated using Equations (4)–(6) (Li et al. [2008]): (4) CLint in vitro=∑i=1nVmax(Mi)/Km(Mi) (5) CLint in vivo=CLint in vitro⋅SF (6) CLH=QH⋅fu⋅CLint in vivo/QH+fu⋅CLint in vivo where SF is the milligrams of microsomal protein per gram of liver multiplied by the grams of liver weight; CLH is hepatic clearance; fu is the unbound fraction in the blood (the value of fu was set to 1 due to the absence of available data for toddalolactone); QH is the blood flow in the liver; and Mi is the metabolite of toddalolacone. The physiological parameters to calculate intrinsic clearance were as follows. The liver weight of dogs, rats and humans were 32, 40 and 25.7 g/kg body weight, respectively; the content of microsomal protein was 77.9, 44.8 and 48.8 mg/g of liver; and the blood flow in the liver was 30.9, 55.2 and 20.7 mL/(min ⋅ kg), respectively (Naritomi et al. [2001]).

CYP3A5 = CYP3A5 (Homo sapiens, UniProt P20815); test: Enzyme kinetics of toddalolactone metabolism by recombinant CYP3A5; details: P4 formation
Procedure: The enzyme kinetics of toddalolactone in oxidative metabolism and glucuronidation were determined by incubating liver microsomes (0.2 mg/mL) or CYPs (15 nM) with different concentrations of toddalolactone (1–200 μM). The kinetic parameters including Km and Vmax were obtained by fitting the experimental data to the Michaelis–Menten equation (Equation (1)), biphasic kinetics equation (Equation (2)), or substrate inhibition equation (Equation (3)) (He et al. [2018]), and the results were graphically represented on Eadie–Hofstee plots. The in vitro intrinsic clearance (CLint) was calculated based on the Vmax/Km ratio. Metabolites were quantified using the standard curve for toddalolactone because of the absence of metabolite standards. All incubations were repeated in three independent experiments. Kinetic constants were expressed with mean ± SD: (1) V=Vmax×[S]/Km+[S] (2) V=Vmax1×[S]/Ks1+[S]+Vmax2×[S]/Ks2+[S] […]

[2] = Enzyme kinetics of toddalolactone metabolism in human liver microsomes (oxidative metabolism and glucuronidation); assay type: in vitro ADME; details: human, liver microsomes, pH 7.4, HLMs, Vmax/Km
Procedure: (§1) The CYP reaction system (200 μL) consisted of 0.1 M potassium phosphate buffer (pH 7.4), an NADPH-generating system (1 mM NADPH, 10 mM G-6-P, 1 unit/mL G-6-PD, 4 mM MgCl2), and liver microsomes or recombinant human microsomes (supersomes). Each of the in vitro enzymatic assays using liver microsomes was linear with respect to incubation time and amount of protein. After a pre-incubation at 37 °C for 3 min, the reactions were initiated by adding NADP^+. After incubating for 60 min, the reactions were quenched by adding 200 μL of ice-cold acetonitrile. Samples were centrifuged at 18,000 g for 15 min at 4 °C and 10 μL of supernatant was analyzed using an HPLC system. NADPH or CYP enzyme sources were not used in the control group to ensure that the metabolic reactions were CYP- and NADPH-dependent. All incubation assays were completed in triplicate. The data are presented as mean ± standard deviation (SD).
(§2) In the UGT reaction system, liver microsomes were incubated in 200 μL of the reaction system containing 4 mM UDPGA, 5 mM MgCl2, 20 µg/mL alamethicin, and 50 mM Tris-HCl buffer (pH 7.4). After pre-incubation at 37 °C for 3 min, UDPGA was added to the mixture to initiate the reactions. The mixtures were incubated at 37 °C for 60 min, followed by the addition of 200 μL of cold methanol to terminate the reactions. After centrifugation at 18,000 g for 15 min, 10 μL of the supernatant was analyzed by HPLC.
(§3) The enzyme kinetics of toddalolactone in oxidative metabolism and glucuronidation were determined by incubating liver microsomes (0.2 mg/mL) or CYPs (15 nM) with different concentrations of toddalolactone (1–200 μM). The kinetic parameters including Km and Vmax were obtained by fitting the experimental data to the Michaelis–Menten equation (Equation (1)), biphasic kinetics equation (Equation (2)), or substrate inhibition equation (Equation (3)) (He et al. [2018]), and the results were graphically represented on Eadie–Hofstee plots. The in vitro intrinsic clearance (CLint) was calculated based on the Vmax/Km ratio. Metabolites were quantified using the standard curve for toddalolactone because of the absence of metabolite standards. All incubations were repeated in three independent experiments. Kinetic constants were expressed with mean ± SD: (1) V=Vmax×[S]/Km+[S] (2) V=Vmax1×[S]/Ks1+[S]+Vmax2×[S]/Ks2+[S] (3) V=Vmax×[S]/Ks+[S]+[S]^2/Ksi where v is the rate of reaction, Vmax is the estimated maximum velocity, [S] is the substrate concentration, and Km is the affinity constant of the substrate; Vmax1 and Vmax2 represent the estimated maximum velocity of the two metabolic phases; Ks1 and Ks2 represent the affinity constants for two metabolic phases; Ks and Ksi are the substrate affinity and inhibition constants, respectively.
(§4) The enzyme kinetics in oxidative metabolism and glucuronidation of toddalolactone were studied, and preliminary experiments were performed to ensure that metabolites were formed in the linear range of both reaction time and microsomal protein concentration. The metabolite with the largest peak area was used to calculate the kinetic parameter values (Km, Vmax and CLint). Based on the results of toddalolactone metabolism in different species, the kinetic parameter values in RLMs, DLMs, MLMs, HLMs, RAMs, MIMs, PLMs, CYP1A1 and CYP3A5 were calculated using P4, P4, P4, P4, P2, P2, P4, P4 and P4 data in oxidative metabolism, respectively. In the glucuronidation reaction, the kinetic parameter values in RLMs, MLMs, HLMs, RAMs and PLMs were calculated using P5, P6, P6, P6 and P5 data, respectively.

HLMs = test: as above; assay type: in vitro ADME; details: HLMs; for V max: toddalolactone 1–200 μM
Procedure: as §1, §2, §3, §4

[3] = P450-catalyzed oxidation, P4 formation
[4] = glucuronide metabolism, P6 formation

Sequence of CYP3A5 (P20815 whole entry): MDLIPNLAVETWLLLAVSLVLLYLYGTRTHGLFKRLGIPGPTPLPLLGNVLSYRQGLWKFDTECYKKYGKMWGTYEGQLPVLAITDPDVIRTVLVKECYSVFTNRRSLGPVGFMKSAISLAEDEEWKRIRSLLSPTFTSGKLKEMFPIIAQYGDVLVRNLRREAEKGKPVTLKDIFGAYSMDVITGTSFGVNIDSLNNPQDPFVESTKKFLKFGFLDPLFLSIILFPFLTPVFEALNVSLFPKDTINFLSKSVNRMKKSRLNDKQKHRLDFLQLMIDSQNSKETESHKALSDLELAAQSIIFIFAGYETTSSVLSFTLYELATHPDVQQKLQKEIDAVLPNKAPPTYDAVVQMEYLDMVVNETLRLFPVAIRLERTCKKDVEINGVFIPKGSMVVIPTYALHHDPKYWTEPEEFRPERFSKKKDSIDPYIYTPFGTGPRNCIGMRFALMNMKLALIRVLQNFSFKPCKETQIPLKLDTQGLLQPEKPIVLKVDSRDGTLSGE

## COc1cc2oc(=O)ccc2c(OC)c1C[C@@H](O)C(C)(C)O [toddalolactone]
[1]
  Tmax: 15 min
[1]; 0–8 h
  AUC(0-t): 460 ng·h/mL
[1]; mean of six
  Cmax: 420 ng/mL
[1]; read-out: elimination t1/2 (converted)
  half-life: 63 min
RLMs; RLMs
  CLH versus hepatic blood flow (QH): 1.52%
RLMs; rats
  clearance class according to predicted CLH: low-clearance (low-clearance drugs (<30% liver blood flow))
RLMs; rats, predicted from kinetic parameters of P1–P6, fu set to 1
  in vivo hepatic clearance (CLH): 1.12 mL/(min/kg body weight)
CYP3A5; recombinant CYP3A5 (15 nM)
  K m: 50.34 ± 8.62 µM
CYP3A5; recombinant CYP3A5, Vmax/Km
  CLint: 0.013 µL/min/nmol CYP
[2]; [3]
  microsomal CLint: 0.14 µL/min/mg
[2]; [4]
  microsomal CLint: 0.75 µL/min/mg
HLMs; [3]
  K m: 244.63 ± 78.99 µM
  V max: 35.07 ± 7.16 pmol/min/mg protein
HLMs; [4]
  K m: 66.33 ± 20.46 µM
  V max: 50.16 ± 8.75 pmol/min/mg protein
